Laboratory results: patent US6558952B1, “Treatment for diabetes” (Waratah Pharmaceuticals, Inc., priority 1992, dated 2003)
Marks after values point to notes of the source that are not given here.

System: normal Wistar rats
Test: Pancreatic insulin content in normal rats treated with TGF-α and gastrin
Type: in vivo, rat
Settings: i.p. 0.8 μg/day each for 10 days, n=5, mean +/− SEM
Procedure: Animals. Mice, FVB and CD strain, were obtained from Taconic Farms, Inc., Germantown, N.Y. The TGF-α transgenic line MT-42 used, which expresses high levels of TGF-α from a metallothionein promoter, is described in Jhappan et al, Cell, 61:1137-1146 (1990). Normal Wistar and Zucker rats were allowed normal chow ad libidum with free access to water and were acclimatized for one week prior to initiation of each study. Freshly prepared streptozotocin at a dose of 80 mg/kg body weight was administered by I.V. five to seven days after induction of diabetes, the rats were randomly allocated into groups for subsequent treatment. Hormones, TGF-α and rat gastrin were reconstituted in sterile normal saline containing 0.1% BSA. […]
At the end of the study period (10 days), all animals were sacrificed and samples of pancreas taken as follows: five biopsy specimens (1-2 mg) of pancreatic tissue were taken from separate representative sites in each rat pancreas and immediately snap frozen in liquid nitrogen for analysis of insulin content. […] Pancreatic insulin content values were corrected according to protein content and finally expressed as μg insulin/mg pancreatic protein. All values calculated as mean +/− SEM and statistical significance evaluated using Student's 2-sample t-test.

TGF-α: recombinant Human TGF-α, an EGF receptor ligand, reconstituted in sterile saline containing 0.1% BSA
Pancreatic Insulin Content: 30.4 +/− 7.4* μg insulin/mg protein
